Where a name gives a salt, the structure may show the parent alone. Read-outs that look alike come from different tables or passages of the source.
Key:
[1] = biological target: T1, SARS-CoV-2 PLpro (nsp3 1564–1878) (Severe acute respiratory syndrome coronavirus 2, UniProt P0DTD1); assay: biochemical; parameters: FRET-quenched peptide (Pro3) cleavage by PLpro, 10 min pre-incubation, slope over 20 min, normalised to no-compound control; details: low concentration screen, read-out: % of control remaining
[2] = biological target: T1, SARS-CoV-2 PLpro (nsp3 1564–1878); assay: biochemical; parameters: FRET-quenched peptide (Pro3) cleavage by PLpro, 10 min pre-incubation, slope over 20 min, normalised to no-compound control; details: high concentration screen, read-out: % of control remaining

CCC[C@H](N[C@@H](C)C(=O)N1[C@H](C(=O)O)C[C@@H]2CCCC[C@@H]21)C(=O)OCC [Perindopril Erbumine]
remaining activity at 1.25 µM ([1]; Well no.=8778): 89.7% | remaining activity at 3.75 µM ([2]; Well no.=8778): 84.8%

OCCN1CCN(CCCN2c3ccccc3Sc3ccc(Cl)cc32)CC1 [Perphenazine]
remaining activity at 1.25 µM ([1]; Well no.=1006): 98.7% | remaining activity at 1.25 µM ([1]; Well no.=6319): 104% | remaining activity at 3.75 µM ([2]; Well no.=1006): 99.2% | remaining activity at 3.75 µM ([2]; Well no.=6319): 99.7%

CO[C@H]1[C@H](O)[C@H](O[C@H]2CC[C@@]3(C=O)[C@H](CC[C@@H]4[C@@H]3CC[C@]3(C)[C@@H](C5=CC(=O)OC5)CC[C@]43O)C2)O[C@@H](C)[C@@H]1O [Peruvoside]
remaining activity at 1.25 µM ([1]; Well no.=3687): 97.8% | remaining activity at 3.75 µM ([2]; Well no.=3687): 102%

NCC(CP(=O)(O)O)c1ccc(Cl)cc1 (stereo not shown) [Phaclofen]
remaining activity at 1.25 µM ([1]; Well no.=1167): 103% | remaining activity at 3.75 µM ([2]; Well no.=1167): 104%

CCOc1ccc(NC(C)=O)cc1 [Phenacetin]
remaining activity at 1.25 µM ([1]; Well no.=4948): 98.7% | remaining activity at 3.75 µM ([2]; Well no.=4948): 93.7%

N=C(NC(=O)c1nc(Cl)c(N)nc1N)Nc1ccccc1 [Phenamil methanesulfonate]
remaining activity at 1.25 µM ([1]; Well no.=1313): 101% | remaining activity at 3.75 µM ([2]; Well no.=1313): 99.6%

NNCCc1ccccc1 [Phenelzine sulfate]
remaining activity at 1.25 µM ([1]; Well no.=1203): 99.6% | remaining activity at 3.75 µM ([2]; Well no.=1203): 98.7%

N=C(N)NC(=N)NCCc1ccccc1 [Phenformin HCl]
remaining activity at 1.25 µM ([1]; Well no.=4908): 100% | remaining activity at 3.75 µM ([2]; Well no.=4908): 98.5%

O=C1CCN(c2ccccc2)N1 [Phenidone]
remaining activity at 1.25 µM ([1]; Well no.=3951): 103% | remaining activity at 3.75 µM ([2]; Well no.=3951): 101%

CN(C)CCC(c1ccccc1)c1ccccn1 (stereo not shown) [Pheniramine (Maleate)]
remaining activity at 1.25 µM ([1]; Well no.=6799): 99.4% | remaining activity at 3.75 µM ([2]; Well no.=6799): 90%

CC(COc1ccccc1)N(CCCl)Cc1ccccc1 (stereo not shown) [Phenoxybenzamine (hydrochloride)]
remaining activity at 1.25 µM ([1]; Well no.=6797): 99.8% | remaining activity at 3.75 µM ([2]; Well no.=6797): 93.2%

CC(COc1ccccc1)N(CCCl)Cc1ccccc1 (stereo not shown) [Phenoxybenzamine hydrochloride]
remaining activity at 1.25 µM ([1]; Well no.=371): 95.1% | remaining activity at 3.75 µM ([2]; Well no.=371): 91.2%

CC(COc1ccccc1)N(CCCl)Cc1ccccc1 (stereo not shown) [Phenoxybenzamine.HCl]
remaining activity at 1.25 µM ([1]; Well no.=1761): 102% | remaining activity at 3.75 µM ([2]; Well no.=1761): 101%

CN1CC[C@@]2(C)c3cc(OC(=O)Nc4ccccc4)ccc3N(C)[C@@H]12 [Phenserine]
remaining activity at 1.25 µM ([1]; Well no.=6093): 90.2% | remaining activity at 3.75 µM ([2]; Well no.=6093): 89.8%

Cc1ccc(N(CC2=NCCN2)c2cccc(O)c2)cc1 [Phentolamine (mesylate)]
remaining activity at 1.25 µM ([1]; Well no.=7326): 93.7% | remaining activity at 3.75 µM ([2]; Well no.=7326): 90%

Cc1ccc(N(CC2=NCCN2)c2cccc(O)c2)cc1 [Phentolamine mesylate]
remaining activity at 1.25 µM ([1]; Well no.=1253): 104% | remaining activity at 3.75 µM ([2]; Well no.=1253): 106%

Cc1ccc(N(CC2=NCCN2)c2cccc(O)c2)cc1 [Phentolamine]
remaining activity at 1.25 µM ([1]; Well no.=1635): 105% | remaining activity at 3.75 µM ([2]; Well no.=1635): 105%

NC(Cc1cccc(-c2ccccc2CP(=O)(O)O)c1)C(=O)O (stereo not drawn) [Phenylbenzene-omega-phosphono-alpha-amino acid]
remaining activity at 1.25 µM ([1]; Well no.=1361): 100% | remaining activity at 3.75 µM ([2]; Well no.=1361): 100%

CCCCC1C(=O)N(c2ccccc2)N(c2ccccc2)C1=O [Phenylbutazone]
remaining activity at 1.25 µM ([1]; Well no.=1303): 102% | remaining activity at 1.25 µM ([1]; Well no.=2105): 101% | remaining activity at 3.75 µM ([2]; Well no.=1303): 99.3% | remaining activity at 3.75 µM ([2]; Well no.=2105): 101%

CNC[C@H](O)c1cccc(O)c1 [Phenylephrine hydrochloride]
remaining activity at 1.25 µM ([1]; Well no.=958): 101% | remaining activity at 3.75 µM ([2]; Well no.=958): 103%

C[C@H](N)[C@H](O)c1ccccc1 [Phenylpropanolamine]
remaining activity at 1.25 µM ([1]; Well no.=2292): 96.7% | remaining activity at 3.75 µM ([2]; Well no.=2292): 97.2%

O=C1N=C(O)NC1(c1ccccc1)c1ccccc1 [Phenytoin sodium]
remaining activity at 1.25 µM ([1]; Well no.=403): 104% | remaining activity at 3.75 µM ([2]; Well no.=403): 104%

O=C1NC(=O)C(c2ccccc2)(c2ccccc2)N1 [Phenytoin]
remaining activity at 1.25 µM ([1]; Well no.=1643): 99.6% | remaining activity at 3.75 µM ([2]; Well no.=1643): 100%

CCn1c2ccccc2c2cc(CNC)ccc21 [PhiKan 083]
remaining activity at 1.25 µM ([1]; Well no.=6830): 93.5% | remaining activity at 3.75 µM ([2]; Well no.=6830): 93.9%

O=C(CCc1ccc(O)cc1)c1c(O)cc(O)cc1O [Phloretin]
remaining activity at 1.25 µM ([1]; Well no.=1397): 102% | remaining activity at 1.25 µM ([1]; Well no.=3821): 95.3% | remaining activity at 3.75 µM ([2]; Well no.=1397): 102% | remaining activity at 3.75 µM ([2]; Well no.=3821): 94.8%

O=C(CCc1ccc(O)cc1)c1c(O)cc(O)cc1O[C@@H]1O[C@H](CO)[C@@H](O)[C@H](O)[C@H]1O [Phlorizine]
remaining activity at 1.25 µM ([1]; Well no.=3452): 94.2% | remaining activity at 3.75 µM ([2]; Well no.=3452): 97.9%

CCCC(=O)O[C@@H]1[C@@H](C)[C@@]2(O)[C@@H](C=C(CO)C[C@]3(O)C(=O)C(C)=C[C@@H]23)[C@@H]2C(C)(C)[C@]12OC(=O)CCC [Phorbol 12,13-dibutyrate]
remaining activity at 1.25 µM ([1]; Well no.=3487): 97.7% | remaining activity at 3.75 µM ([2]; Well no.=3487): 100%

CCCCCCCCCCCCCC(=O)O[C@@H]1[C@@H](C)[C@@]2(O)[C@@H](C=C(CO)C[C@]3(O)C(=O)C(C)=C[C@@H]23)[C@@H]2C(C)(C)[C@]12OC(C)=O [Phorbol 12-myristate 13-acetate]
remaining activity at 1.25 µM ([1]; Well no.=1493): 101% | remaining activity at 1.25 µM ([1]; Well no.=3078): 102% | remaining activity at 3.75 µM ([2]; Well no.=1493): 97.5% | remaining activity at 3.75 µM ([2]; Well no.=3078): 105%

C[C@@H]1O[C@@H]1P(=O)(O)O [Phosphomycin disodium]
remaining activity at 1.25 µM ([1]; Well no.=1148): 96.5% | remaining activity at 3.75 µM ([2]; Well no.=1148): 93.1%

O=C(O)CP(=O)(O)O [Phosphonoacetic acid]
remaining activity at 1.25 µM ([1]; Well no.=1299): 101% | remaining activity at 3.75 µM ([2]; Well no.=1299): 103%

CC(C)C[C@H](NP(=O)(O)O[C@@H]1O[C@@H](C)[C@H](O)[C@@H](O)[C@H]1O)C(=O)N[C@@H](Cc1c[nH]c2ccccc12)C(=O)O [Phosphoramidon disodium]
remaining activity at 1.25 µM ([1]; Well no.=1398): 99.4% | remaining activity at 3.75 µM ([2]; Well no.=1398): 100%

NC(=O)c1ccccc1C(=O)N[C@@H](CCC(=O)O)C(=O)O [Phthalamoyl-L-glutamic acid trisodium]
remaining activity at 1.25 µM ([1]; Well no.=1409): 99.3% | remaining activity at 3.75 µM ([2]; Well no.=1409): 101%

CC(=O)NS(=O)(=O)c1ccc(NC(=O)c2ccccc2C(=O)O)cc1 [Phthalylsulfacetamide]
remaining activity at 1.25 µM ([1]; Well no.=7356): 105% | remaining activity at 3.75 µM ([2]; Well no.=7356): 100%

O=C(O)c1ccccc1C(=O)Nc1ccc(S(=O)(=O)Nc2nccs2)cc1 [Phthalylsulfathiazole]
remaining activity at 1.25 µM ([1]; Well no.=7314): 97.8% | remaining activity at 3.75 µM ([2]; Well no.=7314): 95.3%

Reference: PMC8286840, “Identifying SARS-CoV-2 antiviral compounds by screening for small molecule inhibitors of Nsp3 papain-like protease” (Biochemical Journal, 2021)
